Measurements: patent US20030139469A1, “Use of inhibitors of soluble epoxide hydrolase to inhibit vascular smooth muscle cell proliferation” (THE REGENTS OF THE UNIVERSITY OF CALIFORNIA, priority 2002, published 2003)
Entries after “also recorded” stand apart in the source; their conditions may differ. Values belong to the compound of their own block, whether it stands above or below them.

Tests used:
porcine aortic VSM cells = conditions: 14,15-EET 2 μM, chalcone oxide with PDGF and exogenous EETs; cited from earlier work
[1] = tested on: soluble epoxide hydrolase (sEH); conditions: cited from earlier work
metabolic stability = format: in vitro ADME
[2] = tested on: soluble epoxide hydrolase (sEH); test: inhibition of soluble epoxide hydrolase; format: biochemical, human
From the text: Epoxide hydrolases (“EH;” EC 3.3.2.3) are enzymes in the alpha beta hydrolase fold family that add water to 3 membered cyclic ethers termed epoxides. Soluble epoxide hydrolase (sEH) is an enzyme which in endothelial and smooth muscle cells converts EETs to dihydroxy derivatives called dihydroxyeicosatrienoic acids (DHETs). The cloning and sequence of the murine sEH is set forth in Grant et al., J. Biol. Chem. 268(23):17628-17633 (1993). The cloning, sequence, and accession numbers of the human sEH sequence are set forth in Beetham et al., Arch. Biochem. Biophys. 305(1): 197-201 (1993). The evolution and nomenclature of the gene is discussed in Beetham et al., DNA Cell Biol. 14(1):61-71 (1995). Unless otherwise specified, as used herein, the terms “soluble epoxide hydrolase” and “sEH” refer to human sEH. Derivatives of urea are transition state mimetics that form a preferred group of sEH inhibitors. […] Any particular urea derivative or other compound can be easily tested for its ability to inhibit sEH by standard assays, such as the one used in the Examples herein. […] The enzyme also can be detected based on the binding of specific ligands to the catalytic site which either immobilize the enzyme or label it with a probe such as luciferase, green fluorescent protein or other reagent. […]

[3] = tested on: spontaneously hypertensive rats; conditions: injection; cited from earlier work

Compound: O=C(c1ccccc1)C1OC1c1ccc(-c2ccccc2)cc1 (stereo not drawn) [4-phenylchalcone oxide, reference compound]
PDGF-mediated DNA synthesis / mitogenesis (porcine aortic VSM cells): additive increase in mitogenesis
in vitro inhibition of epoxide hydrolases [1]: potent

Compound: CCCCCC1OC1C/C=C\C/C=C\C/C=C\CCCC(=O)O (stereo not drawn) [14,15-EET]
PDGF-mediated DNA synthesis / mitogenesis (porcine aortic VSM cells): increase PDGF-mediated DNA synthesis

metabolic stability (metabolic stability): metabolically stable
activity as an inhibitor of sEH [2]: particularly high activity
Compound: CCCCCCCCCCCCNC(=O)NC12CC3CC(CC(C3)C1)C2 [ADU, N-adamantyl-N′-dodecyl urea]

Compound: O=C(NC1CCCCC1)NC1CCCCC1 [DCU, N,N′-dicyclohexylurea]
systemic blood pressure [3]: lowering of blood pressure; also recorded: lower systemic blood pressure
